Experimental data as given in US20140005163A1 (NOVARTIS AG, priority 2010, published 2014).
Converted amounts (≈) assume the structure as drawn.

Experiments:
[1] = system: PKB Ser473 phosphorylation in Rat1-myr-HA-p110 delta cells; experiment: Reverse protein array assay, PKB Ser473 phosphorylation in Rat1-myr-p110 delta cells; assay type: cell-based; conditions: read-out: p-PKB IC50
Procedure, shortened: (§1)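 Cells: Rat1-myr-HA-p110 alpha/beta/delta, seeded ≥20 h. Lysis on ice 10 min; reverse-phase protein array, 4 lysate dilutions; fluorescence read, relative intensity.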

Solubility at pH 6.8 = assay type: physicochemical; conditions: pH 6.8, aqueous buffer, thermodynamic from solid; read-out: solubility
Procedure, shortened: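 Solubility was measured at pH 6.8 following the cited Zhou et al. (2007) procedure.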

mTOR = molecular target: T1, mTOR (Homo sapiens, UniProt P42345); experiment: Biochemical assay for m-TOR by TR-FRET; conditions: 8 μM ATP, 400 nM GFP-4EBP1, 0.5 nM mTOR
T1 construct: purchased Invitrogen Corporation (Carlsbad/CA, USA) PV4753
Procedure, shortened: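 mTOR (0.5 nM final) phosphorylated GFP-4EBP1 (400 nM final) with ATP (8 μM final) at rt in 50 mM HEPES pH 7.5, 10 mM MnCl2, 50 mM NaCl, 1 mM EGTA, 1 mM DTT. EDTA stop with Tb3+-anti-p4EBP1 [pThr46] antibody (0.5 nM); TR-FRET read 15 min later.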

[2] = system: S6 Ribosomal Protein phosphorylation Ser235/236 in TSC1 null mouse embryo fibroblast (MEF) cells; experiment: Reverse protein array assay, S6 Ribosomal Protein phosphorylation Ser235/236 in TSC1 null MEF cells; assay type: cell-based; conditions: 1 h, pS6 ribosomal protein Ser235/236, 60 minutes incubation, read-out: p-S6 IC50
Procedure, shortened: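 TSC1−/− MEFs, seeded and held ≥20 h at 37 °C/5% CO2, were exposed to 8-step serial compound dilutions (0.02% DMSO final; DMSO vehicle control) for 60 min at 37 °C. Cells were then lysed on ice for 10 min and lysates spotted onto reverse protein array chips.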

[3] = system: PKB Ser473 phosphorylation in Rat1-myr-HA-p110 beta cells; experiment: Reverse protein array assay, PKB Ser473 phosphorylation in Rat1-myr-p110 beta cells; assay type: cell-based; conditions: 0.5 h, pAkt Ser473, 30 minutes incubation, read-out: p-PKB IC50
Procedure, shortened: as §1

[4] = system: PKB Ser473 phosphorylation in Rat1-myr-HA-p110 alpha cells; experiment: Reverse protein array assay, PKB Ser473 phosphorylation in Rat1-myr-p110 alpha cells; assay type: cell-based; conditions: 0.5 h, pAkt Ser473, 30 minutes compound incubation, read-out: p-PKB IC50
Procedure, shortened: as §1

T1 sequence (P42345 1360-2549 limits assumed): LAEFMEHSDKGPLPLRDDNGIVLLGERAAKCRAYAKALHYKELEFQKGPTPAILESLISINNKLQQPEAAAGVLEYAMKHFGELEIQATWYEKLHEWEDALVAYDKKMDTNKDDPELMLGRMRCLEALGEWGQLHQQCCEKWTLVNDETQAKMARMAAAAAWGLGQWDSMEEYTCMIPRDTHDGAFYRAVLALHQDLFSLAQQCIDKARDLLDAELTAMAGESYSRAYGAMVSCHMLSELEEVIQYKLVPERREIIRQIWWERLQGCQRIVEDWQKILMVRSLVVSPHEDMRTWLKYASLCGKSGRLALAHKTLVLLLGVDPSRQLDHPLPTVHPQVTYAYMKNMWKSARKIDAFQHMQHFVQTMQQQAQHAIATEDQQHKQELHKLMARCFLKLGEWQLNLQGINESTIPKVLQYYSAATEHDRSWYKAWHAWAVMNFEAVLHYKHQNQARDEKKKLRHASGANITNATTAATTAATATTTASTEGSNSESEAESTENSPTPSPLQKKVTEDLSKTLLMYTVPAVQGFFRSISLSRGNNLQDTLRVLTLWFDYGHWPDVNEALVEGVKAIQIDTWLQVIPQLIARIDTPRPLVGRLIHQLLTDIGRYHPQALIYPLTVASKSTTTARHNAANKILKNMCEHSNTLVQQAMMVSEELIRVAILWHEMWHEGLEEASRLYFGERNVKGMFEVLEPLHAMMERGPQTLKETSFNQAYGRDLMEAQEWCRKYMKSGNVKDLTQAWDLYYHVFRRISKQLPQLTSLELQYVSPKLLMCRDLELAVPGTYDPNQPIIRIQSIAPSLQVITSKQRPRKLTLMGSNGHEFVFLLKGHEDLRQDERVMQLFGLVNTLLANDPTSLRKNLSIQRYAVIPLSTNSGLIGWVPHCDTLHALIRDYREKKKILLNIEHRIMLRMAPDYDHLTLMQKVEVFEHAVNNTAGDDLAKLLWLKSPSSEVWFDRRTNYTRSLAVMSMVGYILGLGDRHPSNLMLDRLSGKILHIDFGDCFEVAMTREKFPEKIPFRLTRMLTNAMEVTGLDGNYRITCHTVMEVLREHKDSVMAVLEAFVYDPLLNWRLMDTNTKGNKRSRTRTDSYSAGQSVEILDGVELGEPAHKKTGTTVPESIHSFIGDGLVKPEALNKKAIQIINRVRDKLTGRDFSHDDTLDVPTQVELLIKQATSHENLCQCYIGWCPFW

SMILES	IC50 [1]	solubility (Solubility at pH 6.8)	IC50 (mTOR)	IC50 [3]	IC50 [4]	IC50 [2]
CCNc1cc(-c2ccc3ncc4c(c3c2)n(-c2cn(CC)nc2C)c(=O)n4C)cnc1COC [Example 157, 8-(5-Ethylamino-6-methoxymethyl-pyridin-3-yl)-1-(1-ethyl-3-methyl-1H-pyrazol-4-yl)-3-methyl-1,3-dihydro-imidazo[4,5-c]quinolin-2-one]	12 nM	> 472 µg/mL	10 nM	8 nM	< 5 nM	1 nM
CNc1cc(-c2ccc3ncc4c(c3c2)n(-c2cn(C)nc2C)c(=O)n4C)cnc1COC [Example 159, 1-(1,3-Dimethyl-1H-pyrazol-4-yl)-8-(6-methoxymethyl-5-methylamino-pyridin-3-yl)-3-methyl-1,3-dihydro-imidazo[4,5-c]quinolin-2-one]	24 nM	> 444 µg/mL	12 nM	8 nM	7 nM	8 nM
CCNc1cc(-c2ccc3ncc4c(c3c2)n(-c2cn(C)nc2C)c(=O)n4C)cnc1CC [Example 161, 1-(1,3-Dimethyl-1H-pyrazol-4-yl)-8-(6-ethyl-5-ethylamino-pyridin-3-yl)-3-methyl-1,3-dihydro-imidazo[4,5-c]quinolin-2-one]	< 5 nM	433 µg/mL (≈ 981 µM)	< 3 nM	< 5 nM	< 5 nM	2 nM
CCN(C)c1cncc(-c2ccc3ncc4c(c3c2)n(-c2cn(C)nc2C)c(=O)n4C)c1 [Example 176, 1-(1,3-Dimethyl-1H-pyrazol-4-yl)-8-[5-(ethyl-methyl-amino)-pyridin-3-yl]-3-methyl-1,3-dihydro-imidazo[4,5-c]quinolin-2-one]	48 nM	59 µg/mL (≈ 138 µM)	15 nM	7 nM	< 5 nM	2 nM
Cc1nn(C)cc1-n1c(=O)n(C)c2cnc3ccc(-c4cncc(OC(F)F)c4)cc3c21 [Example 183, 8-(5-Difluoromethoxy-pyridin-3-yl)-1-(1,3-dimethyl-1H-pyrazol-4-yl)-3-methyl-1,3-dihydro-imidazo[4,5-c]quinolin-2-one]	51 nM	84 µg/mL (≈ 192 µM)	< 3 nM	52 nM	23 nM	1 nM
COc1cc(-c2ccc3ncc4c(c3c2)n(-c2cn(C)nc2C)c(=O)n4C)cnc1C [Example 184, 1-(1,3-Dimethyl-1H-pyrazol-4-yl)-8-(5-methoxy-6-methyl-pyridin-3-yl)-3-methyl-1,3-dihydro-imidazo[4,5-c]quinolin-2-one]	16 nM	8 µg/mL (≈ 19.3 µM)	6 nM	16 nM	5 nM	5 nM
Cc1nn(CC(=O)N2CCC2)cc1-n1c(=O)n(C)c2cnc3ccc(-c4cncc(OC(C)C)c4)cc3c21 [Example 205, 1-[1-(2-Azetidin-1-yl-2-oxo-ethyl)-3-methyl-1H-pyrazol-4-yl]-8-(5-isopropoxy-pyridin-3-yl)-3-methyl-1,3-dihydro-imidazo[4,5-c]quinolin-2-one]	772 nM	> 512 µg/mL	22 nM	266 nM	76 nM	37 nM
Cc1nn(C)cc1-n1c(=O)[nH]c2cnc3ccc(-c4cnc(N(C)C)nc4)cc3c21 [Example 207, 8-(2-Dimethylamino-pyrimidin-5-yl)-1-(1,3-dimethyl-1H-pyrazol-4-yl)-1,3-dihydro-imidazo[4,5-c]quinolin-2-one]	238 nM	18 µg/mL (≈ 44.9 µM)	11 nM	63 nM	65 nM	22 nM
CCNc1cc(-c2ccc3ncc4c(c3c2)n(-c2c(C)nn(CCO)c2C)c(=O)n4C)cnc1C [Example 210, 8-(5-Ethylamino-6-methyl-pyridin-3-yl)-1-[1-(2-hydroxy-ethyl)-3,5-dimethyl-1H-pyrazol-4-yl]-3-methyl-1,3-dihydro-imidazo[4,5-c]quinolin-2-one]	53 nM	445 µg/mL (≈ 944 µM)	40 nM	22 nM	57 nM	32 nM

Continued, in another order:

IC50 [1]	solubility (Solubility at pH 6.8)	IC50 (mTOR)	IC50 [3]	IC50 [4]	SMILES	IC50 [2]
118 nM	13 µg/mL (≈ 30.1 µM)	79 nM	66 nM	31 nM	Cc1nn(C(C)C)cc1-n1c(=O)n(C)c2cnc3ccc(-c4cnc(F)c(N)c4)cc3c21 [Example 149.1, 8-(5-Amino-6-fluoro-pyridin-3-yl)-1-(1-isopropyl-3-methyl-1H-pyrazol-4-yl)-3-methyl-1,3-dihydro-imidazo[4,5-c]quinolin-2-one]	9 nM
56 nM	21 µg/mL (≈ 52.1 µM)	39 nM	68 nM	80 nM	Cc1nn(C)cc1-n1c(=O)n(C)c2cnc3ccc(-c4cnc(F)c(N)c4)cc3c21 [Example 149.2, 8-(5-Amino-6-fluoro-pyridin-3-yl)-1-(1,3-dimethyl-1H-pyrazol-4-yl)-3-methyl-1,3-dihydro-imidazo[4,5-c]quinolin-2-one]	3 nM
21 nM	5 µg/mL (≈ 11.6 µM)	17 nM	11 nM	9 nM	CCn1cc(-n2c(=O)n(C)c3cnc4ccc(-c5cnc(F)c(NC)c5)cc4c32)c(C)n1 [Example 150.1, 1-(1-Ethyl-3-methyl-1H-pyrazol-4-yl)-8-(6-fluoro-5-methylamino-pyridin-3-yl)-3-methyl-1,3-dihydro-imidazo[4,5-c]quinolin-2-one]	1 nM
19 nM	6 µg/mL (≈ 13 µM)	98 nM	17 nM	19 nM	CCNc1cc(-c2ccc3ncc4c(c3c2)n(-c2c(C)nn(C)c2C)c(=O)n4C)cnc1Cl [Example 153.1, 8-(6-Chloro-5-ethylamino-pyridin-3-yl)-3-methyl-1-(1,3,5-trimethyl-1H-pyrazol-4-yl)-1,3-dihydro-imidazo[4,5-c]quinolin-2-one]	4 nM
9 nM	> 472 µg/mL	5 nM	< 5 nM	< 5 nM	CCNc1cc(-c2ccc3ncc4c(c3c2)n(-c2cn(C(C)C)nc2C)c(=O)n4C)cnc1CO [Example 155.3, 8-(5-Ethylamino-6-hydroxymethyl-pyridin-3-yl)-1-(1-isopropyl-3-methyl-1H-pyrazol-4-yl)-3-methyl-1,3-dihydro-imidazo[4,5-c]quinolin-2-one]	1 nM
59 nM	62 µg/mL (≈ 136 µM)	22 nM	47 nM	88 nM	CCNc1cc(-c2ccc3ncc4c(c3c2)n(-c2c(C)nn(C)c2C)c(=O)n4C)cnc1CO [Example 155.4, 8-(5-Ethylamino-6-hydroxymethyl-pyridin-3-yl)-3-methyl-1-(1,3,5-trimethyl-1H-pyrazol-4-yl)-1,3-dihydro-imidazo[4,5-c]quinolin-2-one]	18 nM
57 nM	33 µg/mL (≈ 74.4 µM)	33 nM	54 nM	22 nM	CCOCc1cc(-c2ccc3ncc4c(c3c2)n(-c2cn(C)nc2C)c(=O)n4C)cnc1N [Example 166.1, 8-(6-Amino-5-ethoxymethyl-pyridin-3-yl)-1-(1,3-dimethyl-1H-pyrazol-4-yl)-3-methyl-1,3-dihydro-imidazo[4,5-c]quinolin-2-one]	3 nM
41 nM	10 µg/mL (≈ 22.9 µM)	< 3 nM	24 nM	19 nM	Cn1cc(-n2c(=O)n(C)c3cnc4ccc(-c5cnc(N)c(CO)c5)cc4c32)c(Cl)n1 [Example 169.3, 8-(6-Amino-5-hydroxymethyl-pyridin-3-yl)-1-(3-chloro-1-methyl-1H-pyrazol-4-yl)-3-methyl-1,3-dihydro-imidazo[4,5-c]quinolin-2-one]	1.32 nM
132 nM	361 µg/mL (≈ 787 µM)	39 nM	40 nM	23 nM	CCOc1cc(-c2ccc3ncc4c(c3c2)n(-c2cn(C)nc2C)c(=O)n4C)cnc1COC [Example 197.1, 1-(1,3-Dimethyl-1H-pyrazol-4-yl)-8-(5-ethoxy-6-methoxymethyl-pyridin-3-yl)-3-methyl-1,3-dihydro-imidazo[4,5-c]quinolin-2-one]	7 nM
105 nM	3 µg/mL (≈ 6.54 µM)	11 nM	38 nM	8 nM	CCOc1cc(-c2ccc3ncc4c(c3c2)n(-c2cn(CCO)nc2C)c(=O)n4C)cnc1C [Example 211.2, 8-(5-Ethoxy-6-methyl-pyridin-3-yl)-1-[1-(2-hydroxy-ethyl)-3-methyl-1H-pyrazol-4-yl]-3-methyl-1,3-dihydro-imidazo[4,5-c]quinolin-2-one]	11 nM
